The target of one experiment is T1, FABP4 (Homo sapiens, UniProt P15090).
T1 construct: made in house
The experiment is described as follows: FABP binding assay by fluorescence titration (ANS competition). How it is done:
(§1) This example illustrates a binding assay study used to determine the binding affinity of the various inhibitor compounds disclosed herein with the various FABPs: FABP3, FABP4, FABP5 and FABP7.
(§2) Binding assays for FABP3, FABP4, FABP5 and FABP7 were carried out by fluorescence titrations. FABPs were bacterially expressed and purified and the equilibrium dissociation constants (Kd) that characterize their interactions with different compounds were measured by fluorescence competition assays. The method entails two steps as described in e.g., Lin, Q. et al., “Ligand selectivity of the peroxisome proliferator-activated receptor alpha,” Biochemistry 38, 185-190, doi:10.1021/bi9816094 bi9816094 [pii](1999). In the first step, Kd for the association of the protein with the fluorescent fatty acid probe ANS was measured. Protein ([…]) was titrated with ANS from a concentrated solution in DMSO. Ligand binding was monitored by following the increase in the fluorescence of the ligand upon binding to the protein, and Kd for the association of ANS with the each FABP was computed from titration curves as described in e.g., Norris, A. W. & Li, E., “Fluorometric titration of the CRABPs,” Methods Mol Biol 89, 123-139 (1998)). Kds for binding of non-fluorescent ligands were then measured by monitoring their ability to displace ANS in the binding pocket of the protein. Each FABP was pre-complexed with ANS at 1:1 molar ratio and titrated with the different compounds whose binding was reflected by a decrease in probe fluorescence. Kds were extracted from the EC50 of the competition curve and the measured Kd for ANS.
(§3) Binding assays for FABP3, FABP4, FABP5 and FABP7 were carried out by fluorescence titrations as described in Example 16.

The target in a further experiment is T2, FABP5 (Homo sapiens, UniProt Q01469).
T2 construct: made in house
Described as above. As to the method:
as §1, §2, §3

The subject of a further experiment is PPARγ. Kind of experiment: Transactivation assay, PPRE luciferase reporter in COS-7 cells. Format: cell-based. The conditions noted are these: tested against rosiglitazone, FIG. 4. As to the method: (§4) COS-7 were cultured in 6-well plates and co-transfected with either a luciferase reporter driven by 3 copies of a PPRE and expression vector for either PPARδ, PPARα or PPARγ together with a vector harboring cDNA for β-galactosidase, serving as a transfection control. To test whether FABP4 or FABP5 mediate activation of their cognate receptors PPARγ and PPARδ, respectively, cells were also co-transfected with a plasmid harboring sequence of either FABP4 or FABP5. 18 h post-transfection, cells were placed in a serum-free medium and treated with agonist/compound. 18 h. later, cells were lysed, luciferase activity was assayed (Promega, WI, USA) and corrected for transfection efficiency by the activity of β-galactosidase.
(§5) COS-7 were cultured in 6-well plates and co-transfected with either a luciferase reporter driven by 3 copies of a PPRE and expression vector for either PPARδ, PPARα or PPARγ together with a vector harboring cDNA for β-galactosidase, serving as a transfection control. 18 h. post-transfection, cells were placed in a serum-free medium and treated with agonist/compound. 18 h. later, cells were lysed, luciferase activity was assayed (Promega, WI, USA) and corrected for transfection efficiency by the activity of β-galactosidase.
A general note: A reporter such as luciferase makes a cellular process visible.

Another experiment deals with PPARδ. The experiment is described as above. The experiment is classed as cell-based. The conditions noted are these: compared to GW0742, FIG. 5. How it is done: as §4, §5
The test system of experiment [1] is FABP4 together with PPARγ. The experiment is described as follows: Transcriptional activation assay in cells overexpressing FABP4, with PPARγ activator rosiglitazone. Format: cell-based. Particulars: FIG. 7. How it is done:
as §4

The test system of experiment [2] is PPARδ targets PDPK1 and CD47 in TNBC cells MB-231. Kind of experiment: Real-time PCR of PPARδ targets. The experiment is classed as cell-based. The conditions noted are these: MB-231, 1 μM, 6 hours. How it is done:
(§6) Cells were treated with a compound for 6 h. then lysed and RNA was extracted using Trizol, according to the manufacturer's instructions. cDNA was generated using GeneAmp RNA PCR (Applied Biosystems). qPCR was carried out using TaqMan chemistry and Assays-on-Demand probes (Applied Biosystems). 18s (4352930) rRNA was used for normalization. Relative expression was calculated as 2^−ΔΔCT.

A further experiment concerns BT-549 cells. Kind of experiment: Proliferation assay, combination with chemotherapy. Format: cell-based, human. Particulars: B4 1 μM with doxorubicin 0 to 100 nM. How it is done:
2000 cells were plated in each well of 96-well plate. The next day cells were treated with compounds and incubated in Incucyte for 4 days. Images taken every 4 hours for the duration of the time were analyzed to calculate percentage of confluency in response to the treatments. Growth inhibition was calculated as 1−(percentage of viable cells out of untreated cells).

For experiment [3], the system named is LX-2 hepatic stellate cells. Kind of experiment: Lipid uptake assay, Oil Red O staining of lipid droplets. The experiment is classed as cell-based, human. How it is done: 1) LX-2: Human LX-2 hepatic stellate cells were treated with compound for 2 days in the presence or absence of 2% lipid mixture (Sigma, USA) in the growth media. Cells were stained with Oil Red O and lipid content was quantified using ImageJ.

Experiment [4] relates to RAW264.7 murine macrophage cells. The experiment is described as follows: LPS-stimulated proinflammatory cytokine expression by QPCR. Format: cell-based. The conditions noted are these: B4 0 to 5 μM, then LPS 100 ng/ml. How it is done:
as §6
FIG. 33, FIG. 34, and FIG. 35 show the anti-inflammatory effects of compound B4 on RAW264.7 murine macrophage cells.

A further experiment concerns MB-231 tumors. The experiment is described as follows: TNBC xenograft experiment. Format: in vivo. Particulars: NSG mice, B4 20 or 40 mg/kg IP 5 times a week, after 14 days. How it is done:
Eight-week-old NSG […] females were injected subcutaneously into the right flank with 5×10^6 MB-231 cells 1:1 with matrigel. Treatments started the day after cells injections 5 days a week. Mice were treated with either vehicle (5% DMSO, 15%-HPCBD (PH 9.0) in water), 20 mg/kg, or 40 mg/kg B4 dissolved in vehicle. Tumor size was assessed twice per week using a digital caliper. Tumor volumes were determined by measuring the length (l) and the width (w) of the tumor and calculating the volume (V=lw^2/2). Mice were scarified 14 days after injection. Statistical significance between the control and treated mice in both experiments was evaluated using a Student's t test. Mouse experiments were conducted after approval by the institutional animal care and use committee at Case Western Reserve University.
TNBC xenograft model was used to test the efficacy of B4 in suppressing growth on tumors in vivo. 5×10^6 MB-231 cells were subcutaneously injected into the right flank of NSG mice. B4 (20, or 40 mg/kg) or a vehicle were IP injected 5 times a week and tumor growth was monitored.

Read-outs that look alike come from different tables or passages of the source. Where only a bound is given, the exact number is not on record here.

T2 sequence (Q01469 whole entry, species assumed): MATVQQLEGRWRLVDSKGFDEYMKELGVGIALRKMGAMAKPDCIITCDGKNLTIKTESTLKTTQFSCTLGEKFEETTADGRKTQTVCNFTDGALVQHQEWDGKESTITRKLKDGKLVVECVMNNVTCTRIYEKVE
T1 sequence (P15090 whole entry, species assumed): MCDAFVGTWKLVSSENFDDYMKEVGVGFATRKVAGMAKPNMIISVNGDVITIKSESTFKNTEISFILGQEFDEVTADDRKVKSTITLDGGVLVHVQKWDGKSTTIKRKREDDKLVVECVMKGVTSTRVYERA

`CC(C)Oc1cc(NC(=O)CSCC(=O)O)c(Cl)cc1Cl` [Compound B4, 2-((2-((2,4-dichloro-5-isopropoxyphenyl)amino)-2-oxoethyl)thio)acetic acid]: the Kd on FABP4 (FIG. 1A/1B, read-out: binding affinity towards FABP4 (Kd)) is less than 1000 nM; on FABP4 (fluorescence competition with ANS, read-out: FABP4 binding), 66 nM; at FABP5 (FIG. 1A/1B, read-out: binding affinity towards FABP5 (Kd)), less than 1000 nM; on FABP5 (fluorescence competition with ANS, read-out: FABP5 binding) it was 36 nM. Further, in the experiment with PPARγ, the “activation of transcription by PPARγ” value is reported as “did not activate transcription”. In the experiment with PPARδ, the “activation of transcription by PPARδ” value is reported as “did not active transcription”. The “inhibition of PPARγ activity in cells overexpressing FABP4” value in [1] is on record as “inhibit activity of the nuclear receptors only in cells that express the binding proteins”. Moreover, the “levels of endogenous PPARδ targets PDPK1 and CD47” value in [2] was “significantly lower”. Further, in the experiment with BT-549 cells, the sensitization to chemotherapy result is “sensitized to chemotherapy”. The “amount of lipid droplets (Oil Red O)” value in [3] (B4 alone, activated LX-2 cells) was “increased the amount of LD in the cells”. In [3] (co-treatment with 2% lipid mix and B4), the lipid droplet size entry is listed as “increases the LD size even more”. Also, the “IL-1β mRNA level” value in [4] is recorded as “lower in the treated cells”. Moreover, the “IL-6 mRNA level” value in [4] is “lower in the treated cells”. For the same compound, the “TNFα mRNA level” value in [4] was “lower in the treated cells”. Besides, the “growth of 231 tumors” value in the experiment with MB-231 tumors is reported as “almost completely abolished growth”.

(Values after US12570603B2, “FABP4/5 inhibitors, methods of use and methods of making” (Novius Therapeutics, LLC, priority 2021, dated 2026).)
